“And” between values parts separate entries of the source, which are not always exact repeats. Equal values may be shown once.
Assays:
[1] = target: T1, 14-3-3β/CFTRpS753pS768 complex (Homo sapiens, UniProt P13569+P31946); experiment: Dose-response fluorescence polarization (FP) assay, compound titration; assay type: binding; conditions: for Polarization, background subtracted: 14-3-3 10 μM, peptide 100 nM, replicates; for FP signal: With 14-3-3
T1 construct: His6 (cleaved yes); made in house; peptide synthetic
Method: The 14-3-3β concentration used for the FP screening assay was 10 μM (dashed line). c HTS FP assay of the Cyclenium library. The samples contain 100 nM of FITC-CFTR_pS753pS768 peptide, 10 μM 14-3-3β, and 50 μM compound. FC-A (100 µM) was added as a positive control and DMSO as the negative control. Hit compounds are defined as a polarization increase which is higher than 20% of the response of FC-A. Red squares are compounds that appeared positive in the negative control without 14-3-3. […] Background polarization was subtracted from all values, n = 3 technical replicates. Compounds selected for further analysis are indicated with an asterisk. e Polarization in the absence of 14-3-3. […] Source data are provided as a Source Data file. […]
(§1) The FITC-labeled peptides were dissolved in FP buffer (10 mM HEPES pH 7.4, 150 mM NaCl, 0.1% Tween20, 1 mg/mL BSA) to a final concentration of 100 nM or 10 nM. For the dose-response assays, a 14-3-3β concentration of 10 μM was used while titrating the compounds in a two-times dilution series and, for the other assays, a dilution series of 14-3-3β was made with constant concentration of compound. The dilution series were made in 384 Corning Black Round Bottom well plates and their polarization was measured with a Tecan Infinite F500 plate reader (ex. = 485 nm, em. = 535 nm). The method of fitting of the curves was: “log(agonist) vs. response – Variable slope (four parameters)” from GraphPad Prism. The equation is Y = Bottom + (Top-Bottom)/(1 + 10^((LogEC50-X)*HillSlope)).

[2] = target: T2, FITC-labeled CFTRpS753pS768 peptide (no 14-3-3) (Homo sapiens, UniProt P13569); experiment: Dose-response FP control assay in the absence of 14-3-3; assay type: binding; conditions: for Polarization in the absence of 14-3-3, background subtracted: replicates; for FP signal: No 14-3-3
T2 construct: made in house; host or cells: synthetic peptide
Method: The 14-3-3β concentration used for the FP screening assay was 10 μM (dashed line). c HTS FP assay of the Cyclenium library. The samples contain 100 nM of FITC-CFTR_pS753pS768 peptide, 10 μM 14-3-3β, and 50 μM compound. FC-A (100 µM) was added as a positive control and DMSO as the negative control. Hit compounds are defined as a polarization increase which is higher than 20% of the response of FC-A. Red squares are compounds that appeared positive in the negative control without 14-3-3. […] Background polarization was subtracted from all values, n = 3 technical replicates. Compounds selected for further analysis are indicated with an asterisk. e Polarization in the absence of 14-3-3. […] Source data are provided as a Source Data file.
as §1

T1 sequence (P31946 whole entry): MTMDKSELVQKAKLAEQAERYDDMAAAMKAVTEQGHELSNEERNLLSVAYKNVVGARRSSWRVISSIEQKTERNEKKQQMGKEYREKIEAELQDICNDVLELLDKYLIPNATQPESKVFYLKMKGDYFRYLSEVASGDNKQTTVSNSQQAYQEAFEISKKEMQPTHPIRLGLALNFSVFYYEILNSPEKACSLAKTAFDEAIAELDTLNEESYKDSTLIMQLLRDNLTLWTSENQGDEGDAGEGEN
T1 sequence (P13569 747-774 limits assumed): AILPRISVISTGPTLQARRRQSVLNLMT

Structure (SMILES): NCCCC1NCc2ccccc2Sc2ccccc2CNC(=O)C(Cc2c[nH]c3ccccc23)NC(=O)C(Cc2ccccc2)NC1=O (stereo not drawn) [CY000970]
- Polarization, background subtracted ([1]; compound 7.8125e-7 M): 3.967 and 7.467 and 1.967
- Polarization, background subtracted ([1]; compound 1.5625e-6 M): 3.067 and 3.467 and 2.467
- Polarization, background subtracted ([1]; compound 3.125e-6 M): 6.467 and 6.067 and 3.767
- Polarization, background subtracted ([1]; compound 6.25e-6 M): 9.367 and 10.5667 and 10.2667
- Polarization, background subtracted ([1]; compound 1.25e-5 M): 21.1667 and 31.0667 and 29.9667
- Polarization, background subtracted ([1]; compound 2.5e-5 M): 47.8667 and 51.0667 and 48.4667
- Polarization, background subtracted ([1]; compound 5e-5 M): 75.6667 and 90.6667 and 83.6667
- Polarization, background subtracted ([1]; compound 0.0001 M): 125.667 and 143.267 and 127.367
- Polarization in the absence of 14-3-3, background subtracted ([2]; compound 7.8125e-7 M): 1.267 and 1.067 and 0.9667
- Polarization in the absence of 14-3-3, background subtracted ([2]; compound 1.5625e-6 M): 0.5667 and 0.1667 and -0.03333
- Polarization in the absence of 14-3-3, background subtracted ([2]; compound 3.125e-6 M): 1.367 and 2.667 and 1.467
- Polarization in the absence of 14-3-3, background subtracted ([2]; compound 6.25e-6 M): 1.367 and 2.167 and 2.967
- Polarization in the absence of 14-3-3, background subtracted ([2]; compound 1.25e-5 M): 6.867 (2×) and 8.667
- Polarization in the absence of 14-3-3, background subtracted ([2]; compound 2.5e-5 M): 12.7667 and 12.6667 and 13.5667
- Polarization in the absence of 14-3-3, background subtracted ([2]; compound 5e-5 M): 29.6667 and 26.2667 and 32.2667
- Polarization in the absence of 14-3-3, background subtracted ([2]; compound 0.0001 M): 49.4667 and 44.0667 and 55.9667

Structure (SMILES): NCCCC1NC(=O)C(Cc2ccc(-c3ccccc3)cc2)NCc2ccccc2Sc2ccccc2CNC1=O (stereo not drawn) [CY001110]
- Polarization, background subtracted ([1]; compound 7.8125e-7 M): -1.033 and -2.233 and -1.933
- Polarization, background subtracted ([1]; compound 1.5625e-6 M): -4.033 and -5.333 and -2.333
- Polarization, background subtracted ([1]; compound 3.125e-6 M): -5.033 (2×) and -4.933
- Polarization, background subtracted ([1]; compound 6.25e-6 M): -4.133 and -2.733 and -3.633
- Polarization, background subtracted ([1]; compound 1.25e-5 M): 1.867 and 3.867 and 0.9667
- Polarization, background subtracted ([1]; compound 2.5e-5 M): 13.4667 and 18.8667 and 13.1667
- Polarization, background subtracted ([1]; compound 5e-5 M): 40.8667 and 54.6667 and 41.6667
- Polarization, background subtracted ([1]; compound 0.0001 M): 97.2667 and 108.167 and 99.8667
- Polarization in the absence of 14-3-3, background subtracted ([2]; compound 7.8125e-7 M): 0.06667 and 0.2667 and -0.03333
- Polarization in the absence of 14-3-3, background subtracted ([2]; compound 1.5625e-6 M): -0.3333 and -0.6333 (2×)
- Polarization in the absence of 14-3-3, background subtracted ([2]; compound 3.125e-6 M): -0.6333 and 0.1667 and -0.7333
- Polarization in the absence of 14-3-3, background subtracted ([2]; compound 6.25e-6 M): -1.333 (2×) and -0.9333
- Polarization in the absence of 14-3-3, background subtracted ([2]; compound 1.25e-5 M): 0.06667 and -0.2333 and 0.1667
- Polarization in the absence of 14-3-3, background subtracted ([2]; compound 2.5e-5 M): -0.8333 and -1.033 and -0.2333
- Polarization in the absence of 14-3-3, background subtracted ([2]; compound 5e-5 M): -0.3333 and 0.2667 (2×)
- Polarization in the absence of 14-3-3, background subtracted ([2]; compound 0.0001 M): 0.2667 and 1.467 and 3.067

Structure (SMILES): N=C(N)NCCCC1NC(=O)C(CCC(N)=O)NC(=O)C(CCCNC(=N)N)NC(=O)C2CCCN2Cc2cccc(c2)-c2ccccc2CNC1=O (stereo not drawn) [CY002028]
- Polarization, background subtracted ([1]; compound 7.8125e-7 M): 0.5667 and 1.267 and 0.8667
- Polarization, background subtracted ([1]; compound 1.5625e-6 M): 0.6667 and -0.1333 and 0.5667
- Polarization, background subtracted ([1]; compound 3.125e-6 M): 1.867 (2×) and 1.167
- Polarization, background subtracted ([1]; compound 6.25e-6 M): 2.367 and 1.667 and 2.767
- Polarization, background subtracted ([1]; compound 1.25e-5 M): 6.467 and 4.967 and 7.667
- Polarization, background subtracted ([1]; compound 2.5e-5 M): 12.9667 and 10.8667 and 4.867
- Polarization, background subtracted ([1]; compound 5e-5 M): 26.7667 and 22.8667 and 21.6667
- Polarization, background subtracted ([1]; compound 0.0001 M): 66.6667 and 58.4667 and 74.5667
- Polarization in the absence of 14-3-3, background subtracted ([2]; compound 7.8125e-7 M): 1.367 and 0.8667 and 0.4667
- Polarization in the absence of 14-3-3, background subtracted ([2]; compound 1.5625e-6 M): 0.5667 and -0.1333 and 0.4667
- Polarization in the absence of 14-3-3, background subtracted ([2]; compound 3.125e-6 M): 0.3667 (2×) and 0.6667
- Polarization in the absence of 14-3-3, background subtracted ([2]; compound 6.25e-6 M): 0.2667 and -0.5333 and 0.6667
- Polarization in the absence of 14-3-3, background subtracted ([2]; compound 1.25e-5 M): -1.933 and 1.467 and 1.267
- Polarization in the absence of 14-3-3, background subtracted ([2]; compound 2.5e-5 M): 1.367 (2×) and 1.467
- Polarization in the absence of 14-3-3, background subtracted ([2]; compound 5e-5 M): 3.267 and 3.467 and 4.467
- Polarization in the absence of 14-3-3, background subtracted ([2]; compound 0.0001 M): 7.867 and 8.067 and 8.267

Structure (SMILES): N=C(N)NCCCC1NC(=O)C(Cc2ccccc2)NC(=O)C2(CCC(c3ccccc3)CC2)NCc2cccc(c2)-c2ccccc2CNC(=O)C(Cc2c[nH]c3ccccc23)NC1=O (stereo not drawn) [CY007183]
- EC50 ([1]; 14-3-3β 10 μM, labeled CFTRpS753pS768 100 nM): False positive
- FP signal ([1]; compound 338.6 pM): 2
- FP signal ([1]; compound 677.1 pM): 4
- FP signal ([1]; compound 1.35422e-9 M): 3
- FP signal ([1]; compound 2.70843e-9 M): 4
- FP signal ([1]; compound 5.41687e-9 M): 4
- FP signal ([1]; compound 1.08337e-8 M): 2
- FP signal ([1]; compound 2.16675e-8 M): 4
- FP signal ([1]; compound 4.3335e-8 M): 3
- FP signal ([1]; compound 8.66699e-8 M): 2
- FP signal ([1]; compound 1.7334e-7 M): 4
- FP signal ([1]; compound 3.4668e-7 M): 4
- FP signal ([1]; compound 6.93359e-7 M): 5
- FP signal ([1]; compound 1.38672e-6 M): 7
- FP signal ([1]; compound 2.77344e-6 M): 8
- FP signal ([1]; compound 5.54688e-6 M): 14
- FP signal ([1]; compound 1.10938e-5 M): 24
- FP signal ([1]; compound 2.21875e-5 M): 49
- FP signal ([1]; compound 4.4375e-5 M): 80
- FP signal ([1]; compound 8.875e-5 M): 145
- FP signal ([1]; compound 0.0001775 M): 211
- FP signal ([1]; compound 0.000355 M): 249
- FP signal ([1]; compound 0.00071 M): 275
- FP signal ([2]; compound 338.6 pM): 2
- FP signal ([2]; compound 677.1 pM): 4
- FP signal ([2]; compound 1.35422e-9 M): 3
- FP signal ([2]; compound 2.70843e-9 M): 4
- FP signal ([2]; compound 5.41687e-9 M): 4
- FP signal ([2]; compound 1.08337e-8 M): 2
- FP signal ([2]; compound 2.16675e-8 M): 4
- FP signal ([2]; compound 4.3335e-8 M): 3
- FP signal ([2]; compound 8.66699e-8 M): 2
- FP signal ([2]; compound 1.7334e-7 M): 4
- FP signal ([2]; compound 3.4668e-7 M): 4
- FP signal ([2]; compound 6.93359e-7 M): 5
- FP signal ([2]; compound 1.38672e-6 M): 7
- FP signal ([2]; compound 2.77344e-6 M): 8
- FP signal ([2]; compound 5.54688e-6 M): 14
- FP signal ([2]; compound 1.10938e-5 M): 24
- FP signal ([2]; compound 2.21875e-5 M): 49
- FP signal ([2]; compound 4.4375e-5 M): 80
- FP signal ([2]; compound 8.875e-5 M): 145
- FP signal ([2]; compound 0.0001775 M): 211
- FP signal ([2]; compound 0.000355 M): 249
- FP signal ([2]; compound 0.00071 M): 275

— publication PMC9226124, “Macrocycle-stabilization of its interaction with 14-3-3 increases plasma membrane localization and activity of CFTR” (Nature Communications, 2022)
